The target in series [1] is T1, Protein deacetylase HDAC6 (Homo sapiens, UniProt Q9UBN7).
T1 sequence (Q9UBN7 whole entry): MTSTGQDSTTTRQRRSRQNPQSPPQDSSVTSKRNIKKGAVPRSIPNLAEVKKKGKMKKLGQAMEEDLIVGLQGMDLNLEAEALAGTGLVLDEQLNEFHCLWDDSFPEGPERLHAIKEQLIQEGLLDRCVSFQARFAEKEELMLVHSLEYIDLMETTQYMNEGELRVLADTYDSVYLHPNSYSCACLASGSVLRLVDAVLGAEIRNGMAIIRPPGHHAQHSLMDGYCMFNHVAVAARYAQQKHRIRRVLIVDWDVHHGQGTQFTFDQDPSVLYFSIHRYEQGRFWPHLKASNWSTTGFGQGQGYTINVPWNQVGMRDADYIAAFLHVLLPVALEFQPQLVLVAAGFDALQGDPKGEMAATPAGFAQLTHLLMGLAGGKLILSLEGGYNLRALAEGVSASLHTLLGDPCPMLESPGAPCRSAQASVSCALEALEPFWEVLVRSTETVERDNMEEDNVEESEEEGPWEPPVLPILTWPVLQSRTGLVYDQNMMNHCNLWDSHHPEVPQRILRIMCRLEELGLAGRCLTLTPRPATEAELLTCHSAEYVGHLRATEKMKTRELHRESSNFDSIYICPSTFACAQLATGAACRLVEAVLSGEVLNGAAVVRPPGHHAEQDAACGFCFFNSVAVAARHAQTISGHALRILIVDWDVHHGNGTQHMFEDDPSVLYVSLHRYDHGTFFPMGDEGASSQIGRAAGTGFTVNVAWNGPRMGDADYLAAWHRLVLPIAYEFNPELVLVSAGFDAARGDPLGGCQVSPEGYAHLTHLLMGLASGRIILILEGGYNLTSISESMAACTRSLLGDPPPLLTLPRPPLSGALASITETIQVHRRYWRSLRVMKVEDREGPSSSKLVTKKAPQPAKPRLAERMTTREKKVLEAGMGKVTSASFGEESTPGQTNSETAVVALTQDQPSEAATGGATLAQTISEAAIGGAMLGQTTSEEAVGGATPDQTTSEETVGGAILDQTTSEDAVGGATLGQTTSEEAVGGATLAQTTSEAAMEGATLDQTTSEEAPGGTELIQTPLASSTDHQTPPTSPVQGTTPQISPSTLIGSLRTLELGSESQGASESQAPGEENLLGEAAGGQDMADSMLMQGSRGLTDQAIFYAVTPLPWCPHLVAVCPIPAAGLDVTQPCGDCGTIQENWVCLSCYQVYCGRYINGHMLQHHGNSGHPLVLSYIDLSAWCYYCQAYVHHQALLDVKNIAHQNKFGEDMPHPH
The series is described as follows: Inhibition of recombinant human N-terminal GST-tagged HDAC6 (1 to 1215 residues) expressed in baculovirus infected insect cells using RHK-K(Ac)-AMC as substrate after 90 mins by fluorimetry analysis.

A short description of series [2]: Clearance in Sprague-Dawley rat at 2 mg/kg, iv measured up to 24 hrs. The series is classed as ADME, organism-based. The settings on record: in vivo.
The next series has as its target T2, Histone deacetylase 7 (Homo sapiens, UniProt Q8WUI4).
T2 sequence (Q8WUI4 whole entry): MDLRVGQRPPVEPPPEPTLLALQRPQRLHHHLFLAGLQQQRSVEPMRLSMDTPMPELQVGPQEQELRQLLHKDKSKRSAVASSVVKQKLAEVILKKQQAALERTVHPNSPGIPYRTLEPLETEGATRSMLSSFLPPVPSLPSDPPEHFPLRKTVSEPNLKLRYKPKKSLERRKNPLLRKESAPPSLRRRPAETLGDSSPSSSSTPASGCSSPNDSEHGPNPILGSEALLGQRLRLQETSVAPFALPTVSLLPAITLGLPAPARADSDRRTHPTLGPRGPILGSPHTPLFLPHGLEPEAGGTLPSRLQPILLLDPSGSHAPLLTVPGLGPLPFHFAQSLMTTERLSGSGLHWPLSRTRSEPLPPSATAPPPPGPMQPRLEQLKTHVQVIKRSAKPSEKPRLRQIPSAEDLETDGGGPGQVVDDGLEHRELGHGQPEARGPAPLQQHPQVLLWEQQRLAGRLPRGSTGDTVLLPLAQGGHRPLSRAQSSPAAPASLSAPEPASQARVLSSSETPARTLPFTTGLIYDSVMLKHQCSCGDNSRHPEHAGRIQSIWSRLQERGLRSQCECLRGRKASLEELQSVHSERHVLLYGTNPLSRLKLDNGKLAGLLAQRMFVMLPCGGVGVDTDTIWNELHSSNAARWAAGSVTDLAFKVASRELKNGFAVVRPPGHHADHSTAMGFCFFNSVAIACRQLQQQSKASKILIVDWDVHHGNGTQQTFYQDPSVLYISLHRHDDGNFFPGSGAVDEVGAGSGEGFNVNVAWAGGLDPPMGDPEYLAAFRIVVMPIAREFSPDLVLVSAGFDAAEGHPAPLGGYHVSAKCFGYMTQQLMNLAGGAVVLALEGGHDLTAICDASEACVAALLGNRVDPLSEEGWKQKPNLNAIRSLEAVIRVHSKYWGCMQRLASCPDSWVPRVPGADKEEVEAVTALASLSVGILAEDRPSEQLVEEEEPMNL
The series is described as follows: Inhibition of recombinant human N-terminal GST-tagged HDAC7 (518 to 991 residues) expressed in baculovirus infected insect cells using Boc-K(Ac)-AMC as substrate after 90 mins by fluorimetry analysis.

Series [3] is described as follows: Oral bioavailability in Sprague-Dawley rat at 10 mg/kg measured up to 24 hrs. It is filed as ADME, organism-based. Conditions: in vivo.
Series [4] can be described thus: Cmax in Sprague-Dawley rat at 10 mg/kg, po measured up to 24 hrs. More on the design: dose 10 mg/kg, route oral. The series is classed as ADME, organism-based. The settings on record: in vivo.
A further series concerns the target T3, Histone deacetylase 8 (Homo sapiens, UniProt Q9BY41).
T3 sequence (Q9BY41 whole entry): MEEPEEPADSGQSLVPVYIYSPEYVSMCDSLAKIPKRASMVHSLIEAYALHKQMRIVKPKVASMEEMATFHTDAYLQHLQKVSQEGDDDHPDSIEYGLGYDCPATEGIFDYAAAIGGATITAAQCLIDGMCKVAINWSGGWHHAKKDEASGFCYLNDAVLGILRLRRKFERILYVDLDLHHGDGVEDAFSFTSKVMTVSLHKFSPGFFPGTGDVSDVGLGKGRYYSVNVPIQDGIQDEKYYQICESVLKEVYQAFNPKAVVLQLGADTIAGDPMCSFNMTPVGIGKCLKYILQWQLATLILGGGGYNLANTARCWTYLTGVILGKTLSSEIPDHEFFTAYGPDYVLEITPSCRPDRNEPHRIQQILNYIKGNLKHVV
Kind of series: Inhibition of recombinant C-terminal His-tagged and N-terminal Streptavidin2-tagged human HDAC8 (1 to 377 residues) expressed in baculovirus infected insect cells using RHK-K(Ac)-AMC as substrate after 60 mins by fluorescence assay.

Series [5] concerns the target Histone deacetylase 3/Nuclear receptor corepressor 2 (HDAC3/NCoR2) (Homo sapiens, UniProt O15379). Kind of series: biochemical. It is filed as cell-based.
A further series has as its system Mus musculus. The series is described as follows: Upregulation of acetylated H4K5 protein expression in left side cortex of bilateral common carotid artery occlusion-induced vascular dementia C57BL/6J mouse model at 25 mg/kg, ip measured after 3 months by Western blot analysis. It is filed as functional, organism-based. On the technique in general: Immunoblotting shows a protein as a band on a membrane.

Each structure is given as a SMILES string. Active and inactive are the calls of the source. The calls are words filed in the database; no cut-off is given here.

For orientation: IC50 means the concentration that inhibits the measured activity by half. Usually clearance stands for the rate of elimination divided by the concentration. Lower therefore signals a low capacity for elimination. By bioavailability is commonly meant the share of a dose that reaches the circulation, judged against a reference dose that is usually intravenous. By Cmax is commonly meant the highest concentration seen after dosing.

Chain of Histone deacetylase 3/Nuclear receptor corepressor 2 (HDAC3/NCoR2) (O15379 whole entry): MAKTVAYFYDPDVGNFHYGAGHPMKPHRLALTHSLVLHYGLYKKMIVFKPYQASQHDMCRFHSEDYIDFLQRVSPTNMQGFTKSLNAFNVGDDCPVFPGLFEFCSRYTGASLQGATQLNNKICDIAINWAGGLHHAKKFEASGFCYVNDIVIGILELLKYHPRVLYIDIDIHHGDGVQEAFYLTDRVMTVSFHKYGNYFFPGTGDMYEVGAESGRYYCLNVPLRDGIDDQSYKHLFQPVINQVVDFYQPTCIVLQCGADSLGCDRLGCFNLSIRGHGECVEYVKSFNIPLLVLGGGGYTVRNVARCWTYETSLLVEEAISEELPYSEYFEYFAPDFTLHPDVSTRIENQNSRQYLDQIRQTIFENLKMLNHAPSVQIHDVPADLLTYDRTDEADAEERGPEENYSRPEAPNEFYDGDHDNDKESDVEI
Chain of Histone deacetylase 3/Nuclear receptor corepressor 2 (HDAC3/NCoR2) (Q9Y618 whole entry, further chain): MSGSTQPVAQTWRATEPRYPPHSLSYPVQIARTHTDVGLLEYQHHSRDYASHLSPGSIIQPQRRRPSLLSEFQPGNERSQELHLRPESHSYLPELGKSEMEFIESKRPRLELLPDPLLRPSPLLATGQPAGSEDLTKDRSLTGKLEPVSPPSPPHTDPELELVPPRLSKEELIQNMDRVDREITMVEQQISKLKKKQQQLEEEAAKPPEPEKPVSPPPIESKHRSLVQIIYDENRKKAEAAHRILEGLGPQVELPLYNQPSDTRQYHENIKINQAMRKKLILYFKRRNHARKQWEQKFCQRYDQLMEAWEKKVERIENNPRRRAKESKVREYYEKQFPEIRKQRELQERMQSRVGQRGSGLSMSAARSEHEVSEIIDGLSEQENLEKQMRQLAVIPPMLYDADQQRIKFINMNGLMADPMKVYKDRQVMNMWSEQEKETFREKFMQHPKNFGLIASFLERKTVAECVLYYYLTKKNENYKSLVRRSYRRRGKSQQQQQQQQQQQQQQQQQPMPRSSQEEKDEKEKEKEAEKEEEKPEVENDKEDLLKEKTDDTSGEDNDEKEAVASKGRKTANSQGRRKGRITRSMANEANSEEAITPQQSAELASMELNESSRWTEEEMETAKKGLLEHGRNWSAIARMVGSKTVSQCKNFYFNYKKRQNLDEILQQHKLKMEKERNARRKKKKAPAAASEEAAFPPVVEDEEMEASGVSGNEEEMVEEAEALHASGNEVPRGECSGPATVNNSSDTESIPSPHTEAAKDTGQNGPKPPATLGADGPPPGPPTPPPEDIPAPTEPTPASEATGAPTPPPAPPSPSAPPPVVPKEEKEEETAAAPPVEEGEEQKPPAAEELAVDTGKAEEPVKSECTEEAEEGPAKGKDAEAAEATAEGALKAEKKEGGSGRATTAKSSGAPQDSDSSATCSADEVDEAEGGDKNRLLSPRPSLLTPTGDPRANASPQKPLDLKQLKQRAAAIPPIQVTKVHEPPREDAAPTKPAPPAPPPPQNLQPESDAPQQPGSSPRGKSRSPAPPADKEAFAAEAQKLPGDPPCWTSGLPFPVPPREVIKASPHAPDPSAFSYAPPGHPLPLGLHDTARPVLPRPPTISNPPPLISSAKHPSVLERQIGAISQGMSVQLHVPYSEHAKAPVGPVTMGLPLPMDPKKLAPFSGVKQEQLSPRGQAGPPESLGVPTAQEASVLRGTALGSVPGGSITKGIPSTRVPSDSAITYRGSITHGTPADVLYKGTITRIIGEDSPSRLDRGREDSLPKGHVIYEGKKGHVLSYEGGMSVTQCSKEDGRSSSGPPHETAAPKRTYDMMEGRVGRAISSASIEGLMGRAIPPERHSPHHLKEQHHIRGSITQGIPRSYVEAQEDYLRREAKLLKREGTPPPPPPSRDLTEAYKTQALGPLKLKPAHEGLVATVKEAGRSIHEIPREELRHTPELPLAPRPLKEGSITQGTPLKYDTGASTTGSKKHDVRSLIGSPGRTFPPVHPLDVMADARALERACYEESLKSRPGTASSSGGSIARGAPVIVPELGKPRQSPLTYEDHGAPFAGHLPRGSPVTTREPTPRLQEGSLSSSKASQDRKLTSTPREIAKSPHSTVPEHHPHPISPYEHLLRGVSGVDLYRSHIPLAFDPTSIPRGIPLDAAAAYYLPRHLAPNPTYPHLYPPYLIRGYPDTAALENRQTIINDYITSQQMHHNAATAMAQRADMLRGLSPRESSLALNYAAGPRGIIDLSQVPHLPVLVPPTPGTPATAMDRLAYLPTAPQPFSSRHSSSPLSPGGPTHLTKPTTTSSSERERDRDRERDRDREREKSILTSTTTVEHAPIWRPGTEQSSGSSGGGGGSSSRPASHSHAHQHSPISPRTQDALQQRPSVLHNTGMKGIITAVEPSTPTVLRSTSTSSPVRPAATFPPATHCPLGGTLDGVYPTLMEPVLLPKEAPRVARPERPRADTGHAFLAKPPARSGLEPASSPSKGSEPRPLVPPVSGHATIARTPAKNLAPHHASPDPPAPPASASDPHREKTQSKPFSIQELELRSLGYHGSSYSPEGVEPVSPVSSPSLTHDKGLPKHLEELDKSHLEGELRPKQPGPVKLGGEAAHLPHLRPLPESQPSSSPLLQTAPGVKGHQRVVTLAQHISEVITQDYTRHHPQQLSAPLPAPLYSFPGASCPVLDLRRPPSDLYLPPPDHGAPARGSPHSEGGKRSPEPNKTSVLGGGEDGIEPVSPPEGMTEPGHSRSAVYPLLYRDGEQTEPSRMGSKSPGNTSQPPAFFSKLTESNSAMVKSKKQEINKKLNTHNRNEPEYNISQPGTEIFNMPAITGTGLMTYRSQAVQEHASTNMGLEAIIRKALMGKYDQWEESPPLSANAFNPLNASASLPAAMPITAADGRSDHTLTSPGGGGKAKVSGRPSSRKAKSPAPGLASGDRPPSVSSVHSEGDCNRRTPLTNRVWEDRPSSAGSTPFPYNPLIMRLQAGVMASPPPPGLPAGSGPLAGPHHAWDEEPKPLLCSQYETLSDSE

`O=C(/C=C/c1ccc(CNCCCN2c3ccccc3CCc3ccc(Cl)cc32)cc1)NO`: the IC50 was 1270 nM in series [1], “Not Active” at Histone deacetylase 7, 533 nM at Histone deacetylase 8 and 2860 nM in series [5]. In series [2], this compound registered a clearance of 21.3 mL/min/kg. The same compound yielded a bioavailability in series [3] of 1.8%. In series [4], this compound returned a Cmax of 8.9 ng/mL. The outcome in the series with Mus musculus was Active.
